Measured values: patent publication US20060160701A1, “Natural herbicidal agent containing momilactones A and B identified in and isolated from rice hulls” (Konkuk University Industrial Cooperation Corp., priority 2005, published 2006)

Legend:
rice seedlings = conditions: Kato-Naguchi et al., Physiologia Plantarum 115, 2002; cited from earlier work
[1] = system: Amaranthus retroflexus L.; experiment: Germination assay in culture tube (GACT), Amaranthus retroflexus seeds; type: in vivo; conditions: III: Amaranthus retroflexus L., seven days
Procedure: (§1) The momilactones thus isolated and purified according to the method were dissolved in acetone containing a non-ionic surfactant, Tween-20, and diluted with ½ hunter medium, thus generating a growth/germination inhibition solution. The solution contained acetone and Tween-20 in final concentrations of 1% and 0.01% by weight, respectively. The acetone and Tween-20 were found not to cause growth or germination inhibition.
(§2) Seeds of three weed species, Leptochloa chinensis L., Amaranthus retroflexus L. and Cyperus difformis L., which were collected on October 2002 and stored at −35° C. after floating matter was removed using distilled water, were used in this test.
(§3) The weed seeds were surface-sterilized in a 1:10 (v/v) dilution of an aqueous hypochlorite solution for 10 min and washed with distilled water several times according to a method described by Choi et al. (CHOI, J. S. et al., Korean J. Weed Sci., 22, 339-413, 2002).
(§4) 650 mg of sea sand was placed into disposable culture tubes (12×75 mm), which contained the growth/germination inhibition solution at concentrations of 4, 20, 100 and 1000 ppm. 2 mg of each seed of the three weed species was added to the tubes, and was then incubated in a growth chamber (25° C., 12 h photoperiod, 20 μmol/m^2s).
(§5) After seven days, percentage germination of the weed seeds was determined. Using the percentage germination, the inhibitory effects of the growth/germination inhibition solution on germination and fresh weight of the seeds were evaluated. • Germination inhibition (%)=[(control−test group)/control]×100 • Fresh weight inhibition (%)=[(control−test group)/control]×100

[2] = system: Leptochloa chinensis (L.) Ness; experiment: Germination assay in culture tube (GACT), Leptochloa chinensis seeds; type: in vivo; conditions: II: Leptochloa chinensis (L.) Ness, seven days
Procedure: as §1, §2, §3, §4, §5

Cyperus difformis L. = experiment: Germination assay in culture tube (GACT), Cyperus difformis seeds; type: in vivo; conditions: I: Cyperus difformis L., seven days
Procedure: as §1, §2, §3, §4, §5

[3] = system: duckweed (Lemna paucicostata Hegelm 381); experiment: Bioactivity assay using duckweed (Lemna assay); type: in vivo; conditions: 5 days; for Visual injury symptoms (%): scale 0 (no effect) to 100 (complete death)
Procedure: as §1
After 2 ml of the growth/germination inhibition solution, prepared in Example, was aliquotted in triplets into a 24-well plate, one duckweed plant having four fronds was transplanted into each well. The plate was incubated in a growth chamber (26° C., 14 h photoperiod, 50 μmol/m^2s) for 5 days. Herbicidal activity was determined by visual scoring and by measuring the chlorophyll content.
The chlorophyll was extracted in DMSO (dimethyl sulfoxide), and absorbance was measured using a UV-VIS spectrophotometer. The chlorophyll content was determined based on the absorbance data according to a method described by Hiscox and Israelstam (Hiscox, J. D. and Israelstam, G. F., Can. J. Bot., 57, 1332-1334, 1979).
The inhibitory effects of the compounds on chlorophyll content in duckweed were expressed as a percentage (%) of the corresponding values obtained for a control.
Thus, a minus value indicates growth stimulation, and a plus value indicates growth inhibition. • Chlorophyll content (μg/ml)=2.367×(absorbance)^2+6.299×absorbance+0.169 (r=0.999) • Inhibition of chlorophyll content (%)=[(control-test group)/control]×100

[4] = system: three weed species, Leptochloa chinensis L., Amaranthus retroflexus L. and Cyperus difformis L.; experiment: Germination assay in culture tube (GACT), three weed species taken together; type: in vivo; conditions: 20 ppm
Procedure: as §1, §2
The weed seeds were surface-sterilized in a 1:10 (v/v) dilution of an aqueous hypochlorite solution for 10 min and washed with distilled water several times according to a method described by Choi et al. (CHOI, J. S. et al., Korean J. Weed Sci., 22, 339-413, 2002). […]
as §5

lettuce seeds = conditions: derivatives of momilactones A and B; Kato et al., Phytochemistry 16, 1977; cited from earlier work
rice roots = conditions: derivatives of momilactones A and B; Kato et al., Phytochemistry 16, 1977; cited from earlier work

Row | Molecule | Fresh weight inhibition (%) ([1]; 4 ppm) | Germination inhibition (%) ([1]; 4 ppm) | Fresh weight inhibition (%) ([1]; 20 ppm) | Germination inhibition (%) ([1]; 20 ppm) | Fresh weight inhibition (%) ([1]; 100 ppm) | Germination inhibition (%) ([1]; 100 ppm) | Fresh weight inhibition (%) ([1]; 1000 ppm) | Germination inhibition (%) ([1]; 1000 ppm) | Fresh weight inhibition (%) ([2]; 4 ppm) | Germination inhibition (%) ([2]; 4 ppm) | Fresh weight inhibition (%) ([2]; 20 ppm) | Germination inhibition (%) ([2]; 20 ppm) | Fresh weight inhibition (%) ([2]; 100 ppm) | Germination inhibition (%) ([2]; 100 ppm) | Fresh weight inhibition (%) ([2]; 1000 ppm) | Germination inhibition (%) ([2]; 1000 ppm) | Fresh weight inhibition (%) (Cyperus difformis L.; 4 ppm) | Germination inhibition (%) (Cyperus difformis L.; 4 ppm) | Fresh weight inhibition (%) (Cyperus difformis L.; 20 ppm) | Germination inhibition (%) (Cyperus difformis L.; 20 ppm) | other results
1 | C=C[C@]1(C)CC[C@@H]2C(=C[C@H]3OC(=O)[C@]4(C)[C@H]3[C@]23CC[C@@]4(O)OC3)C1 [Momilactone B] | 12.5 | 15 | 100 | 100 | 100 | 100 | 100 | 100 | 23.3 | 100 | 100 | 100 | 100 | 100 | 100 | 100 | 15 | 23.3 | 100 | 100 | inhibition of the growth of rice seedlings (rice seedlings): inhibiting the growth of rice seedlings; Fresh weight inhibition (%) (Cyperus difformis L.; 100 ppm): 100%; Germination inhibition (%) (Cyperus difformis L.; 100 ppm): 100%; Fresh weight inhibition (%) (Cyperus difformis L.; 1000 ppm): 100%; Germination inhibition (%) (Cyperus difformis L.; 1000 ppm): 100%; Inhibition of chlorophyll content (%) ([3]; 1 ppm): 33.9%; Visual injury symptoms (%) ([3]; 1 ppm): 20%; Inhibition of chlorophyll content (%) ([3]; 3.3 ppm): 91.9%; Visual injury symptoms (%) ([3]; 3.3 ppm): 70%; Inhibition of chlorophyll content (%) ([3]; 10 ppm): 98.3%; Visual injury symptoms (%) ([3]; 10 ppm): 98%; Inhibition of chlorophyll content (%) ([3]; 33 ppm): 100%; Visual injury symptoms (%) ([3]; 33 ppm): 100%; Visual injury symptoms (%) ([3]; 33 ppm, listed as momilactone B): complete death; Inhibition of chlorophyll content (%) ([3]; 100 ppm): 100%; Visual injury symptoms (%) ([3]; 100 ppm): 100%; Visual injury symptoms (%) ([3]; 100 ppm, listed as momilactone B): complete death; inhibition of germination of all tested weed species [4]: completely inhibited; inhibition of growth of all tested weed species [4]: completely inhibited
2 | 3-hydro momilactone A | – | – | – | – | – | – | – | – | – | – | – | – | – | – | – | – | – | – | – | – | inhibition of the germination of lettuce seeds (lettuce seeds): strongest inhibitory activity; inhibition of the growth of rice roots (rice roots): strongest inhibitory activity
3 | C=C[C@]1(C)CC[C@@H]2C(=C[C@H]3OC(=O)[C@@]4(C)C(=O)CC[C@@]2(C)[C@@H]34)C1 [Momilactone A] | 0 | 20 | 18.6 | 20 | 33.3 | 30 | 100 | 100 | 0 | 0 | 0 | 0 | 48.4 | 70 | 100 | 100 | 0 | 20 | 100 | 97.5 | Fresh weight inhibition (%) (Cyperus difformis L.; 100 ppm): 100%; Germination inhibition (%) (Cyperus difformis L.; 100 ppm): 100%; Fresh weight inhibition (%) (Cyperus difformis L.; 1000 ppm): 100%; Germination inhibition (%) (Cyperus difformis L.; 1000 ppm): 100%; Inhibition of chlorophyll content (%) ([3]; 1 ppm): 27.0%; Visual injury symptoms (%) ([3]; 1 ppm): 20%; Inhibition of chlorophyll content (%) ([3]; 3.3 ppm): 52.3%; Visual injury symptoms (%) ([3]; 3.3 ppm): 50%; Inhibition of chlorophyll content (%) ([3]; 10 ppm): 85.8%; Visual injury symptoms (%) ([3]; 10 ppm): 70%; Inhibition of chlorophyll content (%) ([3]; 33 ppm): 95.6%; Visual injury symptoms (%) ([3]; 33 ppm): 90%; Inhibition of chlorophyll content (%) ([3]; 100 ppm): 98.9%; Visual injury symptoms (%) ([3]; 100 ppm): 95%
4 | acetyl momilactone B | – | – | – | – | – | – | – | – | – | – | – | – | – | – | – | – | – | – | – | – | inhibition of the germination of lettuce seeds (lettuce seeds): strongest inhibitory activity; inhibition of the growth of rice roots (rice roots): strongest inhibitory activity
